Laboratory results reported in patent publication US9556165B2 (priority 2012, dated 2017).
≈ marks a conversion by molar mass, not a printed value.

What was measured:
Type in all cases: cell-based
B. fragilis 6688 = experiment: MIC determination, broth microdilution (CLSI); conditions: Bacteroides fragilis, 6688, strain 15; read-out: strain 15 MIC
S. maltophilia ICB7569 = experiment: MIC determination, broth microdilution (CLSI); conditions: Stenotrophomonas maltophilia, ICB7569, strain 10
strain 19 = experiment: MIC determination, broth microdilution (CLSI)
S. aureus 133 = experiment: MIC determination, broth microdilution (CLSI); conditions: Staphylococcus aureus, 133, strain 11; read-out: strain 11 MIC
A. baumannii ATCC15308 = experiment: MIC determination, broth microdilution (CLSI); conditions: Acinetobacter baumannii, ATCC15308, strain 9
S. pneumoniae 113 = experiment: MIC determination, broth microdilution (CLSI); conditions: Streptococcus pneumoniae, 113, strain 14; read-out: strain 14 MIC
C. perfringens DSM756 = experiment: microbe, parasite or virus in culture; conditions: Clostridium perfringens, DSM756, read-out: strain 16 MIC, strain 16
M. catarrhalis ICB489 = experiment: MIC determination, broth microdilution (CLSI); conditions: Moraxella catarrhalis, ICB489, strain 12
H. influenzae ATCC 49247 = experiment: MIC determination, broth microdilution (CLSI); conditions: Haemophilus influenzae, ATCC49247, strain 13; read-out: strain 13 MIC
C. freundii K21/3034 = experiment: MIC determination, broth microdilution (CLSI); conditions: Citrobacter freundii, K21/3034, strain 4
K. pneumoniae 60 = experiment: MIC determination, broth microdilution (CLSI); conditions: Klebsiella pneumoniae, 60, strain 2
strain 21 = experiment: MIC determination, broth microdilution (CLSI)
M. morganii 126/3048 = experiment: MIC determination, broth microdilution (CLSI); conditions: Morganella morganii, 126/3048, strain 5
[1] = system: P. aeruginosa 2297-con (AmpC derepressed); experiment: MIC determination, broth microdilution (CLSI); conditions: Pseudomonas aeruginosa, read-out: strain 8 MIC, strain 8
E. coli J62 = experiment: MIC determination, broth microdilution (CLSI); conditions: Escherichia coli, J62, strain 17; read-out: strain 17 MIC
E. cloacae 34654 = experiment: MIC determination, broth microdilution (CLSI); conditions: Enterobacter cloacae, 34654, strain 3
E. coli J62-TEM-3 = experiment: MIC determination, broth microdilution (CLSI); conditions: Escherichia coli, J62TEM3, read-out: strain 18 MIC, strain 18
[2] = system: P. aeruginosa 2297 (AmpC wt); experiment: MIC determination, broth microdilution (CLSI); conditions: Pseudomonas aeruginosa, strain 7
E. coli ATCC25922 = experiment: MIC determination, broth microdilution (CLSI); conditions: Escherichia coli, ATCC25922, strain 1
P. aeruginosa PAO1 = experiment: MIC determination, broth microdilution (CLSI); conditions: Pseudomonas aeruginosa, PAO1, strain 6
strain 20 = experiment: MIC determination, broth microdilution (CLSI)

SMILES	MIC (B. fragilis 6688) [µg/mL]	MIC (S. maltophilia ICB7569) [µg/mL]	MIC (strain 19) [µg/mL]	MIC (S. aureus 133) [µg/mL]	MIC (A. baumannii ATCC15308) [µg/mL]	MIC (S. pneumoniae 113) [µg/mL]	MIC (C. perfringens DSM756) [µg/mL]	MIC (M. catarrhalis ICB489) [µg/mL]	MIC (H. influenzae ATCC 49247) [µg/mL]	MIC (C. freundii K21/3034) [µg/mL]	MIC (K. pneumoniae 60) [µg/mL]	MIC (strain 21) [µg/mL]	MIC (M. morganii 126/3048) [µg/mL]	MIC [1] [µg/mL]	MIC (E. coli J62) [µg/mL]	MIC (E. cloacae 34654) [µg/mL]	MIC (E. coli J62-TEM-3) [µg/mL]	MIC [2] [µg/mL]	MIC (E. coli ATCC25922) [µg/mL]	MIC (P. aeruginosa PAO1) [µg/mL]	further results
CC1(C)[C@H](NC(=O)/C(=N\OCCOc2ccc(C(=N)NCCN)cc2)c2csc(N)n2)C(=O)N1OS(=O)(=O)O [Example 24, (2Z)-2-[(2-{4-[N-(2-Aminoethyl)carbamimidoyl]phenoxy}ethoxy)imino]-2-(2-amino-1,3-thiazol-4-yl)-N-[(3S)-2,2-dimethyl-4-oxo-1-(sulfooxy)azetidin-3-yl]ethanamide]	2 (≈ 3.42 µM)	8 (≈ 13.7 µM)	0.125 (≈ 0.214 µM)	≤ 0.063	1 (≈ 1.71 µM)	2 (≈ 3.42 µM)	2 (≈ 3.42 µM)	≤ 0.063	≤ 0.063	0.125 (≈ 0.214 µM)	0.25 (≈ 0.428 µM)	0.5 (≈ 0.855 µM)	0.125 (≈ 0.214 µM)	2 (≈ 3.42 µM)	0.125 (≈ 0.214 µM)	0.25 (≈ 0.428 µM)	2 (≈ 3.42 µM)	4 (≈ 6.84 µM)	0.125 (≈ 0.214 µM)	2 (≈ 3.42 µM)	MIC (strain 20): 0.25 µg/mL (≈ 0.428 µM)
CC1(C)[C@H](NC(=O)/C(=N\OCCOc2ccc(C(=N)N[C@H]3CCNC3)cc2)c2csc(N)n2)C(=O)N1OS(=O)(=O)O [Example 39, (2Z)-2-(2-Amino-1,3-thiazol-4-yl)-N-[(3S)-2,2-dimethyl-4-oxo-1-(sulfooxy)azetidin-3-yl]-2-{[2-(4-{N-[(3S)-pyrrolidin-3-yl]carbamimidoyl}phenoxy)ethoxy]imino}ethanamide]	16 (≈ 26.2 µM)	16 (≈ 26.2 µM)	0.125 (≈ 0.205 µM)	≤ 0.063	0.5 (≈ 0.819 µM)	2 (≈ 3.28 µM)	8 (≈ 13.1 µM)	0.25 (≈ 0.409 µM)	0.25 (≈ 0.409 µM)	0.25 (≈ 0.409 µM)	0.5 (≈ 0.819 µM)	0.25 (≈ 0.409 µM)	0.5 (≈ 0.819 µM)	2 (≈ 3.28 µM)	0.25 (≈ 0.409 µM)	0.5 (≈ 0.819 µM)	4 (≈ 6.55 µM)	4 (≈ 6.55 µM)	0.25 (≈ 0.409 µM)	2 (≈ 3.28 µM)	MIC (strain 20): 0.25 µg/mL (≈ 0.409 µM)
CC1(C)[C@H](NC(=O)/C(=N\OCCOc2ccc(C(=N)N)nc2)c2csc(N)n2)C(=O)N1OS(=O)(=O)O [Example 4, (2Z)-2-(2-Amino-1,3-thiazol-4-yl)-2-({2-[(6-carbamimidoylpyridin-3-yl)oxy]ethoxy}imino)-N-[(3)-2,2-dimethyl-4-oxo-1-(sulfooxy)azetidin-3-yl]ethanamide]	2 (≈ 3.69 µM)	4 (≈ 7.37 µM)	0.125 (≈ 0.23 µM)	≤ 0.063	1 (≈ 1.84 µM)	16 (≈ 29.5 µM)	2 (≈ 3.69 µM)	≤ 0.063	≤ 0.063	0.125 (≈ 0.23 µM)	0.25 (≈ 0.461 µM)	0.25 (≈ 0.461 µM)	0.25 (≈ 0.461 µM)	8 (≈ 14.7 µM)	0.25 (≈ 0.461 µM)	0.5 (≈ 0.922 µM)	8 (≈ 14.7 µM)	16 (≈ 29.5 µM)	0.125 (≈ 0.23 µM)	4 (≈ 7.37 µM)	MIC (strain 20): 0.25 µg/mL (≈ 0.461 µM)
CC1(C)[C@H](NC(=O)/C(=N\OCCOc2cc(C(=N)N)ccn2)c2csc(N)n2)C(=O)N1OS(=O)(=O)O [Example 22, (2Z)-2-(2-Amino-1,3-thiazol-4-yl)-2-({2-[(4-carbamimidoylpyridin-2-yl)oxy]ethoxy}imino)-N-[(3S)-2,2-dimethyl-4-oxo-1-(sulfooxy)azetidin-3-yl]ethanamide]	4 (≈ 7.37 µM)	4 (≈ 7.37 µM)	0.5 (≈ 0.922 µM)	≤ 0.063	4 (≈ 7.37 µM)	2 (≈ 3.69 µM)	2 (≈ 3.69 µM)	0.125 (≈ 0.23 µM)	≤ 0.063	0.5 (≈ 0.922 µM)	1 (≈ 1.84 µM)	1 (≈ 1.84 µM)	1 (≈ 1.84 µM)	16 (≈ 29.5 µM)	1 (≈ 1.84 µM)	1 (≈ 1.84 µM)	8 (≈ 14.7 µM)	32 (≈ 59 µM)	1 (≈ 1.84 µM)	16 (≈ 29.5 µM)	MIC (strain 20): 1 µg/mL (≈ 1.84 µM)
CC1(C)[C@H](NC(=O)/C(=N\OCCOc2ccc(C(=N)NCCNC=N)cc2)c2csc(N)n2)C(=O)N1OS(=O)(=O)O [Example 38]	4 (≈ 6.54 µM)	32 (≈ 52.3 µM)	0.125 (≈ 0.204 µM)	≤ 0.063	0.25 (≈ 0.409 µM)	2 (≈ 3.27 µM)	2 (≈ 3.27 µM)	≤ 0.063	≤ 0.063	0.125 (≈ 0.204 µM)	0.25 (≈ 0.409 µM)	0.25 (≈ 0.409 µM)	0.5 (≈ 0.817 µM)	4 (≈ 6.54 µM)	0.25 (≈ 0.409 µM)	0.25 (≈ 0.409 µM)	4 (≈ 6.54 µM)	8 (≈ 13.1 µM)	0.125 (≈ 0.204 µM)	4 (≈ 6.54 µM)	MIC (strain 20): 0.25 µg/mL (≈ 0.409 µM)
CC1(C)[C@H](NC(=O)/C(=N\OCCOc2ccnc(C(=N)N)c2)c2csc(N)n2)C(=O)N1OS(=O)(=O)O [Example 15, (2Z)-2-(2-Amino-1,3-thiazol-4-yl)-2-({2-[(2-carbamimidoylpyridin-4-yl)oxy]ethoxy}imino)-N-[(3S)-2,2-dimethyl-4-oxo-1-(sulfooxy)azetidin-3-yl]ethanamide]	2 (≈ 3.69 µM)	4 (≈ 7.37 µM)	0.5 (≈ 0.922 µM)	≤ 0.063	2 (≈ 3.69 µM)	2 (≈ 3.69 µM)	0.5 (≈ 0.922 µM)	≤ 0.063	≤ 0.063	0.5 (≈ 0.922 µM)	1 (≈ 1.84 µM)	0.5 (≈ 0.922 µM)	0.5 (≈ 0.922 µM)	8 (≈ 14.7 µM)	1 (≈ 1.84 µM)	1 (≈ 1.84 µM)	8 (≈ 14.7 µM)	8 (≈ 14.7 µM)	0.5 (≈ 0.922 µM)	8 (≈ 14.7 µM)	MIC (strain 20): 0.5 µg/mL (≈ 0.922 µM)
CC1(C)[C@H](NC(=O)/C(=N\OCCOc2ccc(C(=N)NC3CCNCC3)cc2)c2csc(N)n2)C(=O)N1OS(=O)(=O)O [Example 23, (2Z)-2-(2-Amino-1,3-thiazol-4-yl)-N-[(3S)-2,2-dimethyl-4-oxo-1-(sulfooxy)azetidin-3-yl]-2-[(2-{4-[N-(piperidin-4-yl)carbamimidoyl]phenoxy}ethoxy)imino]ethanamide]	4 (≈ 6.4 µM)	16 (≈ 25.6 µM)	0.125 (≈ 0.2 µM)	≤ 0.063	0.5 (≈ 0.8 µM)	1 (≈ 1.6 µM)	2 (≈ 3.2 µM)	≤ 0.063	≤ 0.063	0.125 (≈ 0.2 µM)	0.25 (≈ 0.4 µM)	0.25 (≈ 0.4 µM)	0.5 (≈ 0.8 µM)	2 (≈ 3.2 µM)	0.25 (≈ 0.4 µM)	0.5 (≈ 0.8 µM)	1 (≈ 1.6 µM)	2 (≈ 3.2 µM)	0.125 (≈ 0.2 µM)	2 (≈ 3.2 µM)	MIC (strain 20): 0.125 µg/mL (≈ 0.2 µM)
